Earlier results on two compounds are cited in patent EP4759311A1, “TRPM8 INHIBITORS FOR USE IN THE PREVENTION OR TREATMENT OF JOINT DAMAGE, JOINT DEGENERATION AND/OR JOINT INFLAMMATION CAUSED BY OSTEOARTHRITIS” (Dompé farmaceutici SpA, priority 2024, dated 2026).

For this data set, the target named is TRPM8 (Homo sapiens, UniProt Q7Z2W7). As to conditions: TRPM8 inhibitor; no method given.
Sequence of TRPM8 (Q7Z2W7 whole entry, species assumed): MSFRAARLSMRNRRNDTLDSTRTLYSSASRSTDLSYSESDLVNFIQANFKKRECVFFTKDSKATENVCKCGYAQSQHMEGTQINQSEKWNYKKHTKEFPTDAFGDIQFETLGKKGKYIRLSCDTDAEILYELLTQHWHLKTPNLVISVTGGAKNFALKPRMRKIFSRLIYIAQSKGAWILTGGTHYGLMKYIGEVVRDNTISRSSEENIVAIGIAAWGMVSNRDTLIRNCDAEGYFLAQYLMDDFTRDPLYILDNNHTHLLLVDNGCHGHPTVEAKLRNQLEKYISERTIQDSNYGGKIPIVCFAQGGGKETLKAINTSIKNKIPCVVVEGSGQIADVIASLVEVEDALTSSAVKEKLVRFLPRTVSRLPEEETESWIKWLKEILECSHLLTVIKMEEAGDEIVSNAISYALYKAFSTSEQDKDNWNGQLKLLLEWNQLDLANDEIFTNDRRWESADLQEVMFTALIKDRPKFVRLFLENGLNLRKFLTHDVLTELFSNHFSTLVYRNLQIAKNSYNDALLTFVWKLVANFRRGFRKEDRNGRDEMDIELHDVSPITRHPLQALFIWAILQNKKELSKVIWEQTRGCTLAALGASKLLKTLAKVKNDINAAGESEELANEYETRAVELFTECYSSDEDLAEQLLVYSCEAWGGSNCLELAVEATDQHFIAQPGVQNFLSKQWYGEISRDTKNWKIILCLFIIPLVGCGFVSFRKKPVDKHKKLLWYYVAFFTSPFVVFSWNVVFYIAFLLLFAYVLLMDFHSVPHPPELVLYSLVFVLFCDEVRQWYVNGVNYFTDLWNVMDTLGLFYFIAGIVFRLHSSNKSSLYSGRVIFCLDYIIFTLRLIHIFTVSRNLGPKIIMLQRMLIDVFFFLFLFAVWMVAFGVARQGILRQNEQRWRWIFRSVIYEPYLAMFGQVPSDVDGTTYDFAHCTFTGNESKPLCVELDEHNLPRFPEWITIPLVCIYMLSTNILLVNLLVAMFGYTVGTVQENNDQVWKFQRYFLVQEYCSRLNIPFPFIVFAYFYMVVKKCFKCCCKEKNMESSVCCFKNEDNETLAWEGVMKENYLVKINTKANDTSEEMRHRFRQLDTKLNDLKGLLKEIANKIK

As a reminder, the IC50 is the concentration that gives 50% inhibition. Consider `O=C(O)c1ccc(S(=O)(=O)N(Cc2ccc(OC(F)(F)F)cc2)c2ncc(C(F)(F)F)cc2Cl)cc1` [RQ-00203078, 4-[[[3-Chloro-5-(trifluoromethyl)-2-pyridinyl][[4-(trifluoromethoxy)phenyl]methyl]amino]sulfonyl]benzoic acid], for which the IC50 was 5.3 nM.

For the compound `COC(=O)[C@H](Cc1c[nH]c2ccccc12)N(Cc1ccccc1)Cc1ccccc1` [TRPM8 antagonist 2, N,N-Bis(phenylmethyl)-L-tryptophan methyl ester], the IC50 was 0.2 nM.
